Experimental data from patent US20240384350A1, “METHODS OF TREATING CANCER WITH KINASE INHIBITORS” (BOARD OF REGENTS, THE UNIVERSITY OF TEXAS SYSTEM, priority 2021, published 2024).

Legend:
Experiment in all cases: Ba/F3 drug screening, Cell Titer Glo, IC50 Mut/WT
Assay type in all cases: cell-based
[1] = target: T1, EGFR S784F (Homo sapiens, UniProt P00533, S784F); details: Classical-Like, 72 hours
T1 construct: expressed in transfected cells; host or cells: Ba/F3 cells, retroviral pBabe-Puro vector (vector made by GeneScript from EGFR WT)

[2] = target: T2, EGFR L858R/V834L (Homo sapiens, UniProt P00533, L858R/V834L); details: Classical-Like, 72 hours
T2 construct: expressed in transfected cells; host or cells: Ba/F3 cells, retroviral pBabe-Puro vector

[3] = target: T3, EGFR Ex19del (Homo sapiens, UniProt P00533, DEL746-750); details: Classical-Like, 72 hours
T3 construct: expressed in transfected cells; host or cells: Ba/F3 cells, retroviral pBabe-Puro vector
Protocol: (§1) Data represent the ratio of the IC50 value for a given TKI for cells with a classical-like EGFR mutation to the IC50 value for cells with wildtype EGFR.
(§2) Ba/F3 cell generation, drug screening, and IC50 approximations. Ba/F3 cells were obtained as a gift from Dr. Gordon Mills (MD Anderson Cancer Center), and maintained in RPMI (Sigma) containing 10% FBS, 1% penicillin/streptomycin, and 10 ng/ml recombinant mIL-3 (R&D Biosystems). To establish stable Ba/F3 cell lines, Ba/F3 cells were transduced with retroviruses containing mutant EGFR plasmids for 12-24 hours.
(§3) After 48-72 hours of transduction, 2 μg/ml puromycin (Invitrogen) was added to Ba/F3 cell lines in complete RPMI. To select for EGFR positive cell lines, cells were stained with PE-EGFR (Biolegend) and sorted by FACS. After sorting, EGFR positive cells were maintained in RPMI containing 10% FBS, 1% penicillin/streptomycin, and 1 ng/ml EGF to support cell viability. […] Shortly, cells were plated in 384-well plates (Greiner Bio-One) at 2000-3000 cells per well in technical triplicate. Seven different concentrations of TKIs or DMSO vehicle were added to reach a final volume of 40 μL per well. After 72 hours, 11 μL of Cell Titer Glo (Promega) was added to each well. Plates were incubated for a minimum of 10 minutes, and bioluminescence was determined using a FLUOstar OPTIMA plate reader (BMG LABTECH). Raw bioluminescence values were normalized to DMSO control treated cells, and values were plotted in GraphPad Prism. […] Drug screens were performed in technical triplicate on each plate and either duplicate or triplicate biological replicates.

[4] = target: T4, EGFR L858R (Homo sapiens, UniProt P00533, L858R); details: Classical-Like, 72 hours
T4 construct: expressed in transfected cells; host or cells: Ba/F3 cells, retroviral pBabe-Puro vector

[5] = target: T5, EGFR T725M (Homo sapiens, UniProt P00533, T725M); details: Classical-Like, 72 hours
T5 construct: expressed in transfected cells; host or cells: Ba/F3 cells, retroviral pBabe-Puro vector (vector made by GeneScript from EGFR WT)

[6] = target: T6, EGFR D761N (Homo sapiens, UniProt P00533, D761N); details: Classical-Like, 72 hours
T6 construct: expressed in transfected cells; host or cells: Ba/F3 cells, retroviral pBabe-Puro vector
Protocol: as §1, §2, §3

[7] = target: T7, EGFR S768dupSVD (Homo sapiens, UniProt P00533, DUP768-770); details: Ex20, 72 hours
T7 construct: expressed in transfected cells; host or cells: Ba/F3 cells, retroviral pBabe-Puro vector
Protocol: Data represent the ratio of the IC50 value for a given TKI for cells with an ex20ins EGFR mutation to the IC50 value for cells with wildtype EGFR.
as §2
After 48-72 hours of transduction, 2 μg/ml puromycin (Invitrogen) was added to Ba/F3 cell lines in complete RPMI. To select for EGFR positive cell lines, cells were stained with PE-EGFR (Biolegend) and sorted by FACS. After sorting, EGFR positive cells were maintained in RPMI containing 10% FBS, 1% penicillin/streptomycin, and 1 ng/ml EGF to support cell viability. Drug screening was performed as previously described^41,42. Shortly, cells were plated in 384-well plates (Greiner Bio-One) at 2000-3000 cells per well in technical triplicate. Seven different concentrations of TKIs or DMSO vehicle were added to reach a final volume of 40 μL per well. After 72 hours, 11 μL of Cell Titer Glo (Promega) was added to each well. Plates were incubated for a minimum of 10 minutes, and bioluminescence was determined using a FLUOstar OPTIMA plate reader (BMG LABTECH). Raw bioluminescence values were normalized to DMSO control treated cells, and values were plotted in GraphPad Prism. […] Drug screens were performed in technical triplicate on each plate and either duplicate or triplicate biological replicates. […] Statistical differences between groups were determined by ANOVA as described in the figure legends.

[8] = target: T8, EGFR H773insNPH (Homo sapiens, UniProt P00533, INS773NPH); details: Ex20, 72 hours
T8 construct: expressed in transfected cells; host or cells: Ba/F3 cells, retroviral pBabe-Puro vector

[9] = target: T9, EGFR Ex19del T790M (Homo sapiens, UniProt P00533, DEL746-750/T790M); details: T790M-like-3S, 72 hours
T9 construct: expressed in transfected cells; host or cells: Ba/F3
Protocol: Data represent the ratio of the IC50 value for a given TKI for cells with a T790M-like-3S EGFR mutation to the IC50 value for cells with wildtype EGFR.
as §2
(§4) After 48-72 hours of transduction, 2 μg/ml puromycin (Invitrogen) was added to Ba/F3 cell lines in complete RPMI. To select for EGFR positive cell lines, cells were stained with PE-EGFR (Biolegend) and sorted by FACS. After sorting, EGFR positive cells were maintained in RPMI containing 10% FBS, 1% penicillin/streptomycin, and 1 ng/ml EGF to support cell viability. Drug screening was performed as previously described^41,42. Shortly, cells were plated in 384-well plates (Greiner Bio-One) at 2000-3000 cells per well in technical triplicate. Seven different concentrations of TKIs or DMSO vehicle were added to reach a final volume of 40 μL per well. After 72 hours, 11 μL of Cell Titer Glo (Promega) was added to each well. Plates were incubated for a minimum of 10 minutes, and bioluminescence was determined using a FLUOstar OPTIMA plate reader (BMG LABTECH). Raw bioluminescence values were normalized to DMSO control treated cells, and values were plotted in GraphPad Prism. […] Drug screens were performed in technical triplicate on each plate and either duplicate or triplicate biological replicates.

[10] = target: T10, EGFR L718Q T790M (Homo sapiens, UniProt P00533, L718Q/T790M); details: T790M-like-3R, 72 hours
T10 construct: expressed in transfected cells; host or cells: Ba/F3
Protocol: (§5) Data represent the ratio of the IC50 value for a given TKI for cells with a T790M-like-3R EGFR mutation to the IC50 value for cells with wildtype EGFR.
as §2
(§6) After 48-72 hours of transduction, 2 μg/ml puromycin (Invitrogen) was added to Ba/F3 cell lines in complete RPMI. To select for EGFR positive cell lines, cells were stained with PE-EGFR (Biolegend) and sorted by FACS. After sorting, EGFR positive cells were maintained in RPMI containing 10% FBS, 1% penicillin/streptomycin, and 1 ng/ml EGF to support cell viability. […] Shortly, cells were plated in 384-well plates (Greiner Bio-One) at 2000-3000 cells per well in technical triplicate. Seven different concentrations of TKIs or DMSO vehicle were added to reach a final volume of 40 μL per well. After 72 hours, 11 μL of Cell Titer Glo (Promega) was added to each well. Plates were incubated for a minimum of 10 minutes, and bioluminescence was determined using a FLUOstar OPTIMA plate reader (BMG LABTECH). Raw bioluminescence values were normalized to DMSO control treated cells, and values were plotted in GraphPad Prism. […] Drug screens were performed in technical triplicate on each plate and either duplicate or triplicate biological replicates. […] Statistical differences between groups were determined by ANOVA as described in the figure legends.

[11] = target: T11, EGFR Ex19del/T790M/L792H (Homo sapiens, UniProt P00533, DEL746-750/L792H/T790M); details: T790M-like-3R, 72 hours
T11 construct: expressed in transfected cells; host or cells: Ba/F3
Protocol: as §5, §2, §6

[12] = target: T12, EGFR L858R/T790M/C797S (Homo sapiens, UniProt P00533, C797S/L858R/T790M); details: T790M-like-3R, 72 hours
T12 construct: expressed in transfected cells; host or cells: Ba/F3
Protocol: as §5, §2, §6

[13] = target: T13, EGFR E709A (Homo sapiens, UniProt P00533, E709A); details: Ba/F3 cells, EGFR E709A (PACC), Mut/WT
T13 construct: expressed in transfected cells; host or cells: Ba/F3

[14] = target: T14, EGFR E709K (Homo sapiens, UniProt P00533, E709K); details: Ba/F3 cells, EGFR E709K (PACC), Mut/WT
T14 construct: expressed in transfected cells; host or cells: Ba/F3

[15] = target: T15, EGFR G719A/R776C (Homo sapiens, UniProt P00533, G719A/R776C); details: Ba/F3 cells, EGFR G719A/R776C (PACC), Mut/WT
T15 construct: expressed in transfected cells; host or cells: Ba/F3

[16] = target: T16, EGFR K757R (Homo sapiens, UniProt P00533, K757R); details: Ba/F3 cells, EGFR K757R (PACC), Mut/WT
T16 construct: expressed in transfected cells; host or cells: Ba/F3

[17] = target: T17, EGFR S768I/V769L (Homo sapiens, UniProt P00533, S768I/V769L); details: Ba/F3 cells, EGFR S768I/V769L (PACC), Mut/WT
T17 construct: host or cells: Ba/F3
Protocol: (§7) Data represent the ratio of the IC50 value for a given TKI for cells with a PACC EGFR mutation to the IC50 value for cells with wildtype EGFR.
as §2, §4

[18] = target: T18, EGFR S768I V774M (Homo sapiens, UniProt P00533, S768I/V774M); details: Ba/F3 cells, EGFR S768I V774M (PACC), Mut/WT
T18 construct: host or cells: Ba/F3

[19] = target: T19, EGFR V774M (Homo sapiens, UniProt P00533, V774M); details: Ba/F3 cells, EGFR V774M (PACC), Mut/WT
T19 construct: host or cells: Ba/F3
Protocol: as §7, §2, §4

[20] = target: T20, EGFR L858R/L718V (Homo sapiens, UniProt P00533, L718V/L858R); details: Ba/F3 cells, EGFR L858R/L718V (PACC), Mut/WT
T20 construct: host or cells: Ba/F3

[21] = target: T21, EGFR Ex19del G724S (Homo sapiens, UniProt P00533, DEL746-750/G724S); details: Ba/F3 cells, EGFR Ex19del G724S (PACC), Mut/WT
T21 construct: expressed in transfected cells; host or cells: Ba/F3
Protocol: as §7, §2, §4

[22] = target: T22, EGFR L858R/L792H (Homo sapiens, UniProt P00533, L792H/L858R); details: Ba/F3 cells, EGFR L858R/L792H (PACC), Mut/WT
T22 construct: expressed in transfected cells; host or cells: Ba/F3
Protocol: as §7, §2, §4

[23] = target: T23, EGFR Ex19del/L792H (Homo sapiens, UniProt P00533, DEL746-750/L792H); details: Ba/F3 cells, EGFR Ex19del/L792H (PACC), Mut/WT
T23 construct: expressed in transfected cells; host or cells: Ba/F3

[24] = target: T24, EGFR L858R/C797S (Homo sapiens, UniProt P00533, C797S/L858R); details: Ba/F3 cells, EGFR L858R/C797S (PACC), Mut/WT
T24 construct: expressed in transfected cells; host or cells: Ba/F3

[25] = target: T25, EGFR Ex19del L718V (Homo sapiens, UniProt P00533, DEL746-750/L718V); details: Ba/F3 cells, EGFR Ex19del L718V (PACC), Mut/WT
T25 construct: expressed in transfected cells; host or cells: Ba/F3

[26] = target: T26, EGFR Ex19del T854I (Homo sapiens, UniProt P00533, DEL746-750/T854I); details: Ba/F3 cells, EGFR Ex19del T854I (PACC), Mut/WT
T26 construct: expressed in transfected cells; host or cells: Ba/F3 (retroviral transduction, pBabe-Puro based vectors)

SMILES	ratio of IC50 for cells with mutant EGFR to IC50 for cells with wildtype EGFR (Mut/WT) [1]	ratio of IC50 for cells with mutant EGFR to IC50 for cells with wildtype EGFR (Mut/WT) [2]	ratio of IC50 for cells with mutant EGFR to IC50 for cells with wildtype EGFR (Mut/WT) [3]	ratio of IC50 for cells with mutant EGFR to IC50 for cells with wildtype EGFR (Mut/WT) [4]	ratio of IC50 for cells with mutant EGFR to IC50 for cells with wildtype EGFR (Mut/WT) [5]	ratio of IC50 for cells with mutant EGFR to IC50 for cells with wildtype EGFR (Mut/WT) [6]	ratio of IC50 for cells with mutant EGFR to IC50 for cells with wildtype EGFR (Mut/WT) [7]	ratio of IC50 for cells with mutant EGFR to IC50 for cells with wildtype EGFR (Mut/WT) [8]	ratio of IC50 for cells with mutant EGFR to IC50 for cells with wildtype EGFR (Mut/WT) [9]	ratio of IC50 for cells with mutant EGFR to IC50 for cells with wildtype EGFR (Mut/WT) [10]	ratio of IC50 for cells with mutant EGFR to IC50 for cells with wildtype EGFR (Mut/WT) [11]	ratio of IC50 for cells with mutant EGFR to IC50 for cells with wildtype EGFR (Mut/WT) [12]	ratio of the IC50 value for cells with a PACC EGFR mutation to the IC50 value for cells with wildtype EGFR [13]	ratio of the IC50 value for cells with a PACC EGFR mutation to the IC50 value for cells with wildtype EGFR [14]	ratio of the IC50 value for cells with a PACC EGFR mutation to the IC50 value for cells with wildtype EGFR [15]	ratio of the IC50 value for cells with a PACC EGFR mutation to the IC50 value for cells with wildtype EGFR [16]	ratio of the IC50 value for cells with a PACC EGFR mutation to the IC50 value for cells with wildtype EGFR [17]	ratio of the IC50 value for cells with a PACC EGFR mutation to the IC50 value for cells with wildtype EGFR [18]	ratio of the IC50 value for cells with a PACC EGFR mutation to the IC50 value for cells with wildtype EGFR [19]	ratio of the IC50 value for cells with a PACC EGFR mutation to the IC50 value for cells with wildtype EGFR [20]	other results
Cc1cc(C(=O)Nc2nc3cccc(Cl)c3n2[C@@H]2CCCCN(C(=O)/C=C/CN(C)C)C2)ccn1 [Nazartinib]	0.03107	0.01123	0.0005409	0.017	0.04541	0.0009686	0.4008	0.4242	0.01265	0.317	4.292	2.649	0.07784	0.0309	0.05772	0.3486	0.2253	0.09563	0.1179	1.03	ratio of the IC50 value for cells with a PACC EGFR mutation to the IC50 value for cells with wildtype EGFR [21]: 1.068; ratio of the IC50 value for cells with a PACC EGFR mutation to the IC50 value for cells with wildtype EGFR [22]: 0.3145; ratio of the IC50 value for cells with a PACC EGFR mutation to the IC50 value for cells with wildtype EGFR [23]: 0.5146; ratio of the IC50 value for cells with a PACC EGFR mutation to the IC50 value for cells with wildtype EGFR [24]: 3.46; ratio of the IC50 value for cells with a PACC EGFR mutation to the IC50 value for cells with wildtype EGFR [25]: 0.04632; ratio of the IC50 value for cells with a PACC EGFR mutation to the IC50 value for cells with wildtype EGFR [26]: 1.135
C=CC(=O)Nc1cccc(Oc2nc(Nc3ccc(N4CCN(C)CC4)cc3)nc3ccsc23)c1 [Olmutinib]	0.14	0.006716	0.0008432	0.01716	0.03664	0.1654	0.5533	0.4274	0.0004059	0.3579	2.218	4.111	0.01516	0.05562	0.1805	0.1439	0.3582	0.1109	0.06988	0.8629	ratio of the IC50 value for cells with a PACC EGFR mutation to the IC50 value for cells with wildtype EGFR [21]: 0.268; ratio of the IC50 value for cells with a PACC EGFR mutation to the IC50 value for cells with wildtype EGFR [22]: 0.1405; ratio of the IC50 value for cells with a PACC EGFR mutation to the IC50 value for cells with wildtype EGFR [23]: 0.01923; ratio of the IC50 value for cells with a PACC EGFR mutation to the IC50 value for cells with wildtype EGFR [24]: 2.242; ratio of the IC50 value for cells with a PACC EGFR mutation to the IC50 value for cells with wildtype EGFR [25]: 0.0862; ratio of the IC50 value for cells with a PACC EGFR mutation to the IC50 value for cells with wildtype EGFR [26]: 1.31
